Experimental data reported in PubChem BioAssay (NCI).
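The compound was tested at five concentrations on cells cultured in 96-well plates, with a 48-hour exposure period. Abbreviation: GI50, concentration required for 50% inhibition of growth. TGI: concentration producing complete growth inhibition.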

Legend:
Experiment in all cases: growth of human tumour cells (NCI), 48 h
SW-620 colon = tested on: SW-620 colon
NCI-H460 lung = tested on: NCI-H460 lung
OVCAR-4 ovarian = tested on: OVCAR-4 ovarian
HT29 colon = tested on: HT29 colon
SF-295 CNS = tested on: SF-295 CNS
RPMI-8226 leukemia = tested on: RPMI-8226 leukemia
M14 melanoma = tested on: M14 melanoma
UACC-257 melanoma = tested on: UACC-257 melanoma
786-0 renal = tested on: 786-0 renal
HS 578T breast = tested on: HS 578T breast

Row | Compound | GI50 (SW-620 colon) [µM] | TGI (SW-620 colon) [µM] | GI50 (NCI-H460 lung) [µM] | TGI (NCI-H460 lung) [µM] | GI50 (OVCAR-4 ovarian) [µM] | TGI (OVCAR-4 ovarian) [µM] | GI50 (HT29 colon) [µM] | TGI (HT29 colon) [µM] | GI50 (SF-295 CNS) [µM] | TGI (SF-295 CNS) [µM] | GI50 (RPMI-8226 leukemia) [µM] | TGI (RPMI-8226 leukemia) [µM] | GI50 (M14 melanoma) [µM] | TGI (M14 melanoma) [µM] | GI50 (UACC-257 melanoma) [µM] | TGI (UACC-257 melanoma) [µM] | GI50 (786-0 renal) [µM] | TGI (786-0 renal) [µM] | GI50 (HS 578T breast) [µM] | TGI (HS 578T breast) [µM]
1 | C=C1C(=O)O[C@H]2[C@H]1CC/C(Cn1cc(Cn3ccc4ccccc43)nn1)=C\CC[C@@]1(C)O[C@@H]21 | 1.42 | 3.01 | 5.66 | 19.7 | 1.67 | 3.46 | 1.7 | 3.27 | 7.87 | 21.3 | 1.68 | 4.7 | 1.25 | 2.79 | 2.04 | 4.41 | 1.59 | 3.12 | 2.9 | 14.2
2 | N#CC(=S)Nc1ccc(Cl)c(Cl)c1 |  | > 100 | 16 | > 100 | 5.67 | > 100 |  | 55.4 |  | 57.8 |  | 13.4 |  | > 60.6 |  | > 54.7 |  | > 66.9 | 11.3 | > 100
3 | Cc1cc(C)c(O)c(Cc2cccc(Cc3cc(C)cc(C)c3O)c2O)c1 |  | > 100 |  | > 100 |  | > 100 |  | > 100 |  | > 100 |  | > 100 |  | > 100 |  | > 100 |  | > 100 |  | > 100
4 | COc1ccc(-c2cc(=O)c3c(OC)c(OC)c(OC)c(OC)c3o2)cc1OC |  | > 100 |  | > 100 |  | > 100 |  | > 100 |  | > 100 |  | > 100 |  | > 100 |  | > 100 |  | > 100 |  | 95.3
5 | CCOC(=O)/C(=C/c1ccc([N+](=O)[O-])cc1)C(=O)c1ccccc1 | 2.14 | 4.84 | 2.69 | 7.15 | 3.44 | 12.9 | 2.05 | 3.83 | 2.78 | 8.5 | 2.34 | 6.07 | 2.11 | 5.01 | 3.12 | 7.61 | 1.82 | 3.45 | 3.44 | 12.8
6 | COc1cc(/C=C2\CN(C)C/C(=C\c3cc(OC)c(OC)c(OC)c3)C2=O)cc(OC)c1OC | 0.347 | 1.42 | 0.252 | 0.654 | 0.342 | 1.95 | 0.214 | 0.505 | 0.319 | 1.12 | 0.266 | 0.841 | 0.306 | 1.57 | 0.245 | 0.758 | 0.27 |  | 1.01 | > 63.5
7 | O=C1N=C(c2ccccc2)OC1C(=O)c1ccccc1 (configuration not stated) |  | > 100 |  | > 100 |  | > 100 |  | > 100 |  | > 100 |  | > 100 |  | > 100 |  | > 100 |  | > 100 |  | > 100
8 | Oc1ccc(CNCc2ccccc2)c2cccnc12 |  | > 100 |  | 0.184 |  | > 100 |  | > 100 |  | 61.4 |  | 0.768 |  | 12 |  | 0.816 |  | > 24.7 |  | > 100
9 | COc1ccc(N(CC(=O)NCCC[Te]c2ccccc2)C(=O)CCSC2=C(C)C(=O)c3ccccc3C2=O)cc1 | 2.41 | 8.03 | 0.31 | 0.948 | 2.95 | 11.2 | 1.95 | 7.03 | 0.232 | 0.704 | 1.02 | 5.66 | 1.17 | 2.99 | 2.56 | 6.51 | 2.32 | 4.91 | 1.56 | 6.69
10 | CCOC(=O)c1ccc(N(CCOS(C)(=O)=O)CCOS(C)(=O)=O)cc1C | 88.2 | > 100 | 27.8 | > 100 | 20.9 | 46.8 | 26.3 | > 100 | 21.9 | > 100 | 22.2 | > 100 | 40.5 | > 100 | 69.6 | > 100 | 16.7 | 42.2 | 64.1 | > 100
11 | COc1cc(/C=C/C(=O)c2ccc(Nc3ncnc4ccccc34)cc2)cc(OC)c1 | 2.38 | 9.68 | 14.2 | > 100 | 4.28 | 25.2 | 2.07 | 4.05 | 4.31 | 29.2 | 0.227 | 0.715 | 3.95 | 14.6 | 9.7 | 34.1 | 4.2 | 14.5 | 8.21 | 69.8
12 | C=C1C(=O)O[C@@H]2C(=O)[C@@H](C)[C@@H]3C=CC(=O)[C@@]3(C)[C@@H](OC(=O)/C(C)=C\C)[C@H]12 |  | 1.76 |  | 6.05 |  | 18.2 |  | 1.36 |  | 27.4 |  | 1.25 |  | 8.2 |  | 4.65 |  | 1 |  | > 58.8
